Earlier results, collected in US6713504B2, “Antifungal molecule 2-(3,4-dimethyl-2,5-dihydro-1H-pyrrol-2-yl)-1-methylethyl pentanoate” (Council of Scientific & Industrial Research, priority 2002, dated 2004).

Conditions: amphotericin B and its liposomal derivatives; reported by Zager 2000; cited from earlier work

C[C@@H]1[C@H](O)[C@@H](C)/C=C/C=C/C=C/C=C/C=C/C=C/C=C/[C@H](O[C@@H]2O[C@H](C)[C@@H](O)[C@H](N)[C@@H]2O)C[C@@H]2O[C@](O)(C[C@@H](O)C[C@@H](O)[C@H](O)CC[C@@H](O)C[C@@H](O)CC(=O)O[C@H]1C)C[C@H](O)[C@H]2C(=O)O [amphotericin B]
CT50: 4.0 to 64.0 µg/mL
